Reference: patent US20140256666A1, “ANTIBIOTIC CONJUGATES WITH NONSTEROIDAL ANTI-INFLAMMATORY DRUGS” (Allergan, Inc., priority 2013, published 2014)

Test system: Human Corneal Epithelial Cells
Assay: In vitro corneal permeability, cellular uptake and metabolic stability in human corneal epithelial cells
Format: in vitro ADME
Details: two hour incubation with Human Corneal Epithelial Cells, 50 μM final concentration
Description: Clonetics® human corneal epithelial cells (HCEC) were purchased from Lonza Walkersville, Inc. (Walkersville, Md.) pre-seeded on Costar Transwell™ filters in a 24-well plate. Upon receipt HCEC cells were cultured overnight in a 37° C. incubator ([…], 5% CO2) in media provided by the vendor. Permeability studies were performed within 24 hours of receipt. Dosing solutions 100 μM test article (i.e. ester linked hybrids) were prepared in Lonza's proprietary media by diluting a 50 mM stock solution of the test article in dimethyl sulfoxide. The final percentage of solvent in the incubation was less than 1.0% to prevent inhibition of enzymatic activity or effects on the cell membrane. Transepithelial electrical resistance (TEER) was measured for all wells using a voltohmmeter with STX-2 electrodes (World Precision Instruments Inc., Sarasota, Fla.) after adding 100 μL pre-warmed (37° C.) media to the apical compartment. […] A final TEER value was measured and recorded for all wells.
To evaluate human corneal epithelial cell integrity incubations were conducted using 2 μCi/mL ^3H-mannitol for the same 2 hour incubation period with aliquots taken from the basolateral compartment. ^3H-Mannitol samples were analyzed using liquid scintillation counting. […]

Structure (SMILES): COc1c(N2CCN(C(=O)OCOC(=O)C(C)c3ccc(-c4ccccc4)c(F)c3)C(C)C2)c(F)cc2c(=O)c(C(=O)O)cn(C3CC3)c12 (stereo not shown) [Compound 16, 1-cyclopropyl-6-fluoro-7-{4-[({[2-(2-fluorobiphenyl-4-yl)propanoyl]oxy}methoxy)carbonyl]-3-methylpiperazin-1-yl}-8-methoxy-4-oxo-1,4-dihydroquinoline-3-carboxylic acid]
- cellular uptake of hybrid (parent) and hydrolyzed metabolites (FIG. 1): penetrates into human corneal epithelial cells and is enzymatically hydrolyzed to the individual antibiotic and NSAID
